{"source": "patent US7776902B2", "about": "“Nitrooxyderivatives of cyclooxygenase-2 inhibitors” (Nicox S.A., priority 2002, dated 2010)", "key": {"[1]": {"experiment": "Gastric tolerability after two weeks oral treatment in L-NAME hypertensive rats", "assay_type": "in vivo", "conditions": "10 mg/kg daily for two weeks, hypertension induced by L-NAME 400 mg/liter in drinking water", "method": "(§1) The experiment was carried out according to the method described by M. N. Muscarà et al. Br. J. Pharmacol. 133, 1314, 2001, and employing groups of 10 rats weighing each 200-250 g.\n(§2) The compounds, suspended in 1% carboxymethylcellulose, were administered orally for two weeks at a daily dose of 10 mg/kg body weight.\n(§3) Hypertension was induced by addition of L-NAME (N-omega-nitro-L-arginine methylester) to the drinking water at a concentration of 400 mg/liter. At the end of the treatment, the blood pressure was determined by introduction of a cannula into femoral artery and measurement with polygraphic transducer, 16 hours after the last administration."}, "[2]": {"experiment": "Blood pressure effect after two weeks oral treatment in L-NAME hypertensive rats", "assay_type": "in vivo", "conditions": "10 mg/kg daily for two weeks, L-NAME in drinking water, femoral artery cannula, 16 hours after the last administration", "method": "as §1, §2, §3"}}, "data": [{"smiles": "Cc1ccc(-c2cc(C(F)(F)F)nn2-c2ccc(S(=O)(=O)NC(=O)CCCO[N+](=O)[O-])cc2)cc1", "note": "[Example 4, N-[4-[5-(4-methylphenyl)-3-(trifluoromethyl)-1H-pyrazol-1-yl]phenylsulfonyl]-4-nitrooxy-butanamide]", "values": [{"measurement": "gastric tolerability", "setting": "[1]", "result": "well tolerated"}, {"measurement": "effect on blood pressure", "setting": "[2]", "result": "no increase of the blood pressure"}]}, {"smiles": "Cc1ccc(-c2cc(C(F)(F)F)nn2-c2ccc(S(N)(=O)=O)cc2)cc1", "note": "[celecoxib, 4-[5-(4-methylphenyl)-3-(trifluoromethyl)-1H-pyrazol-1-yl]benzenesulfon-amide]", "values": [{"measurement": "gastric damage, share of the treated animals", "setting": "[1]", "result": 80, "unit": "%"}, {"measurement": "increase of the blood pressure (average)", "setting": "[2]", "result": 15, "unit": "mmHg"}]}]}
